Test results reported in US20250186336A1, “METHOD OF TREATING WET AGE-RELATED MACULAR DEGENERATION” (EYEPOINT PHARMACEUTICALS, INC., priority 2022, published 2025).
Read-outs that look alike come from different tables or passages of the source.

Key:
[1] = test system: Laser-Induced Choroidal Neovascularization (CNV); assay: Swine model of laser-induced choroidal neovascularization, safety and efficacy (Example 7); type: in vivo
Protocol: Safety and efficacy of a vorolanib insert were evaluated in a Swine (Mini-pig) Model of Laser-Induced Choroidal Neovascularization (CNV). The primary objective of this study was to evaluate the long-term safety and inhibition of vascular permeability and neovascularization in a laser-induced model of choroidal neovascularization (CNV) using a vorolanib insert in swine.
On the day of lasering (Groups 1-4) animals were treated with an 810 nm diode laser delivered through an indirect ophthalmoscope. Approximately 6 single laser spots were placed between retinal veins. Both eyes underwent laser treatment according to the schedule in the table above.
On the day of intravitreal injections animals were anesthetized and the eyes were aseptically prepared. […] Animals were allowed to recover normally from the procedure. The pigs were given a topical drop of antibiotic ophthalmic solution 4-6 hours later, and then BID for 2 additional days with at least 6 hours between doses. Animals were dosed on either Day 0 immediately following laser CNV induction or 7 days prior to laser CNV induction according to the schedule in the table above. […]
At time points indicated by the experimental design table, following final data collections, animals were euthanized. Histology was evaluated for eyes from Groups 5-6.

[2] = Solubility of vorolanib in water; type: physicochemical
Description: Vorolanib has the chemical designation (S,Z)—N-(1-(Dimethylcarbamoyl) pyrrolidin-3-yl)-5-((5-fluoro-2-oxoindolin-3-ylidene)methyl)-2,4-dimethyl-1H-pyrrole-3-carboxamide. Synonyms include the term “X-82”. The molecular formula is C23H26FN5O3. […]

[3] = Intravitreal pharmacokinetic study of vorolanib insert (Example 5A); type: in vivo, Male Dutch Belted Rabbits; conditions: for vitreous level of vorolanib at steady state: intravitreal; for AUC(0-t): read-out: vitreous AUClast
Protocol: An Intravitreal Pharmacokinetic Study was performed in Male Dutch Belted Rabbits. The objective of this study was to characterize the plasma and ocular tissue pharmacokinetics of a vorolanib insert following bilateral intravitreal injection on Day 1. Animals were evaluated up to 24 months following placement of the intravitreal insert.
The low dose group (1) received 3 inserts per eye for a total dose of 630 μg per eye. The high dose group (2) animals received 6 inserts per eye given in 2 separate injections (3 inserts per injection) for a total dose of 1,260 μg per eye.
Prior to each scheduled sacrifice point, one whole blood sample was collected from a targeted 2 animals per group via puncture of a marginal ear vein. Samples were tested for levels of vorolanib and its metabolite. Two animals per group were euthanized on day 1 at 6, 12, 24 and 48 hours, on days 7 and 14, and at 1, 2, 4, 6, 8, 16 and 24 months.

[4] = Intravitreal pharmacokinetic study of vorolanib insert (Example 5B); type: in vivo, Dutch Belted Rabbits
Protocol: Another Intravitreal Pharmacokinetic Study was performed in Dutch Belted Rabbits. The objective of this study was to evaluate the plasma and ocular pharmacokinetics of a vorolanib insert following bilateral intravitreal injection in rabbit eyes. Animals were evaluated up to 12 months following placement of the intravitreal insert.
Dutch Belted rabbits were administered vorolanib inserts in each eye by intravitreal injection. Group 1 eyes received 1 insert containing 643 μg of vorolanib, and Group 2 eyes received 2 inserts containing 900 μg total. Blood samples were collected at 2, 7, 14, and 28 days and then once monthly for months 2-12. Inserts were recovered at 2, 7, and 14 days and then at 1, 2, 4, 6, 8, 10, and 12 months. Residual vorolanib levels were determined in all explants using high-performance liquid chromatography. The vorolanib release rate was estimated based on residual levels in the explants. Plasma and ocular tissues were separated and analyzed for vorolanib and its metabolite using liquid chromatography mass spectrometry.

[5] = 18 month intravitreal toxicity and plasma pharmacokinetics study (Example 6); type: in vivo
Protocol: An 18 month intravitreal toxicity study for the insert was also performed in 80 Dutch Belted rabbits (40 male and 40 female). Animals were evaluated for a period of 6 and 18 months following placement of intravitreal inserts. The objective was to characterize the ocular toxicity, plasma pharmacokinetics and biodegradation of a vorolanib insert following bilateral intravitreal injection.
The tables below describe the group assignments and dose levels. For the toxicology groups, animals were sacrificed at 6 months and 18 months. For the plasma pharmacokinetic analysis, blood samples were collected at Days 1, 3, and 7 and then 1, 2, 3, 4, 5, 6, 12, 14, 16 and 18 Months.
The placebo group (1) animals received two placebo inserts by injection in each eye. The low dose group (2) animals received 2 inserts in each eye. The mid dose group (3) animals received 3 inserts in each eye given in 2 separate injections. The high dose group (4) animals received 4 inserts in each eye given in 2 separate injections (2 inserts/injection). The highest dose group (5) animals received 6 inserts in each eye given in 2 separate injections (3 inserts/injection).
At each scheduled timepoint, whole blood was collected via puncture of a marginal ear vein. Samples were analyzed for clinical pathology and plasma pharmacokinetics. Animals were euthanized according to the schedules described above. […]

[6] = male, Dutch Belted, rabbit, vitreous humor, topical or ocular, 630 ug, through day 180
[7] = male, Dutch Belted, rabbit, vitreous humor, topical or ocular, 1260 ug, through day 180

aflibercept: VEGF inhibitor (Regeneron), intravitreal injection, comparator in the swine CNV model
reduction in Corrected Total Lesion Fluorescence (CTLF) value ([1]; Day 7 to Day 28, aflibercept 2 mg, 50 μL/eye IVT, Day 0): largest reduction in CTLF values
efficacy in the model ([1]; aflibercept 2 mg): normal amounts of efficacy

Cc1[nH]c(/C=C2\C(=O)Nc3ccc(F)cc32)c(C)c1C(=O)N[C@H]1CCN(C(=O)N(C)C)C1 [vorolanib, (S,Z)—N-(1-(Dimethylcarbamoyl)pyrrolidin-3-yl)-5-((5-fluoro-2-oxoindolin-3-ylidene)methyl)-2,4-dimethyl-1H-pyrrole-3-carboxamide]
solubility [2]: < 10 µg/mL
change in plasma levels ([3]; after 99 days): No apparent change
vorolanib levels in the vitreous and the retina/choroid relative to IC50 for VEGFR ([3]; at the time points tested): remained significantly above the IC50 for VEGFR
retina/choroid level at steady state ([3]; high dose 1,260 μg per eye): 89 ng/g
vitreous level of vorolanib at steady state ([3]; high dose 1,260 μg per eye (6 inserts)): 97 ng/mL
steady state reached by ([3]; in vivo): ≤ 105 days
burst period of drug release ([3]; in vivo, before steady state): 90 days
retina/choroid level at steady state ([3]; low dose 630 μg per eye): 49 ng/g
vitreous level of vorolanib at steady state ([3]; low dose 630 μg per eye (3 inserts)): 56 ng/mL
Cmax [3, 6]: 232 ng/mL
Tmax [3, 6]: 14 days
AUC(0-t) [3, 6]: 316 µg·h/mL
Cmax [3, 7]: 1700 ng/mL
AUC(0-t) [3, 7]: 1580 µg·h/mL
vorolanib plasma levels in the PK study ([3]; plasma): low pg/mL range
concentration at 10 months ([4]; Dutch Belted, rabbit, in vivo): < 10 ng/mL
drop in mean vorolanib concentration in ocular tissues and plasma ([4]; Dutch Belted, rabbit, in vivo): 85%-99%
vorolanib exposure rank order ([4]; ocular tissues and plasma): choroid=retina=vitreous>aqueous humor>plasma
concentrations in target ocular tissues (choroid and retina) relative to IC50 for VEGFR2 ([4]; through 8 months): above the IC50 for VEGFR2
vorolanib plasma levels ([5]; plasma): low pg/mL range
adverse findings ([5]; up to 6 inserts per eye): No adverse findings
